{
  "source": "patent EP0230023B1",
  "about": "“Pharmaceutical compositions for the enhancement of wound healing” (MARION MERRELL DOW INC., priority 1985, dated 1987)",
  "key": {"[1]": {"tested_on": "rabbit corneas", "experiment": "Rabbit cornea assay for angiogenesis", "format": "in vivo", "experimental": "This may offer an explanation for the dense vascular bed that characterized the granulation tissue in the in-vivo experiments. Sucrose octasulate at concentrations of 0.1 to 100 µg/ml was encapsulated in Hydron and implanted in rabbit corneas. The method used was that described in Surgery 96:48-54, 1984. The […] solution (sucrose octasulfate or PBS) was mixed with an equal volume of Hydron and allowed to polymerize under reduced pressure. […] Eyes were evaluated at days 1 through 14 post-implantation for gross inflammation and, as described by Hunt, et al, in Surgery 96:48-54, 1984, for angiogenesis. Corneal neovascularization was graded on a scale of 0-4+ (integers only being assigned). Zero denotes a normal eye with no ingrowth on limbal vessels into the corneal stroma; 1+, up to 1 mm of capillary ingrowth in a localized arc adjacent to the injection site; 2+, […] ingrowth; 3+, 2-3 mm ingrowth; and 4+, 3 mm or greater ingrowth in a wide arc along the limbal edge toward the injection site. […] To ascertain that the observed angiogenesis was not secondary to an inflammatory process some eyes with a positive response were removed and stained with H&E and a nonspecific esterase stain as early as two days after implantation."}, "[2]": {"tested_on": "collagen", "experiment": "Sucrose octasulfate induced collagen fibrillogenesis (stopped-flow turbidity)", "format": "biochemical", "from_the_text": "Sucrose octasulfate-induced collagen fibril formation was studied in a spectrophotometer equipped with a stopped-flow apparatus. […]"}, "[3]": {"tested_on": "fibroblasts", "experiment": "Cell migration assay (Boyden chamber)", "format": "cell-based", "set-up": "Chemokinesis: scale not given here", "experimental": "Stimulation of directed movement of fibroblasts was assayed as described by Banda M.J., Knighton D.R., Hunt T.K., Werb A., Isolation of a nonmitogenic angiogenesis factor from wound fluid, Proc. Natl. Acad. Sci. 79:7773-7777, 1982. Briefly, solutions of sucrose octasulfate in PBS in concentrations resulting in final concentrations ranging from 10 -² to 10 -⁷ g/ml diluted to a final volume of 300 µℓ in DMEM supplemented with 10 percent rabbit platelet-poor plasma serum were placed in the bottom of Boyden blind-well chambers. Polylysine-coated, 5 µ -pore diameter, polycarbonate filters (Nucleopore) were placed over the test solution and 1.75-3.0 x 10⁶ fibroblasts suspended in DMEM added to the top compartment. The chambers were incubated for two and a half hours at 37 °C,\nAt the end of incubation of the top filter was fixed, stained and evaluated by counting the number of cells that had migrated to the bottom side of the filter. For each experiment five random fields per filter and at least 15 filters per each concentration of sucrose octasulfate were conducted. […]"}, "[4]": {"tested_on": "granulation tissue", "experiment": "Subcutaneous Ivalon sponge implantation, histological analysis of granulation tissue formation", "format": "in vivo, Sprague-Dawley rats", "settings": "score on the 0-4 scale; tested in a similar manner to collagen/sucrose octasulfate; potassium salts", "experimental": "By means of subcutaneous implantation of Ivalon sponges the phase of granulation tissue formation in the repair process can be evaluated. Following a vigorous cleanup procedure the sponge material evokes only minimal inflammatory response. Sterile sponges prepared as set forth in Example 12 were injected with a 50 µl suspension of collagen/sucrose octasulfate suspension prepared as in Example 12. […] The sponges were surgically implanted into 350-500 g, male Sprague-Dawley rats. Before the implantation procedure three rats were anesthetized and their dorsal surfaces shaved and wiped with Predodyne (West Chemical Products, Lynbrook, N.Y.). Six 6 mm incisions were cut in groups of two (one on each side of the vertebral column rostrally, centrally and caudally), spaced equi-distant from each other between the pectoral and pelvic girdles on the dorsal surface. At each incision a pocket was made between the panniculus carnosus and the dermis and two sponges inserted into it, one rostrally and the other caudally; a total of 12 sponges were thus implanted in each animal. The position of each test preparation was alternated between the rostral, central and caudal positions to control the variation due to anatomical location. The incisions were closed with 11-mm Michel wound clips (Propper, Long Island City, N.Y.). Seven days following implantation the animals were sacrificed and the sponges surgically removed with their adhered connective tissue capsules. Controls, sponges injected with either PBS or collagen only were treated in a similar manner. In all, approximately 120 sponges per group were used in the study and randomly selected for biochemical and histologic analysis. The sponges were fixed in formalin and embedded in either plastic or Paraplast following dehydration. Sections were stained with hemotocylin and eosin, trichrome, silver or PAS. […] Mesenchymal cell infiltration was also scored on a predetermined scale from 0-4. […] Although the whole sponge area was used for analysis we noted that the most striking differences between the various treatments were evident in the center of the sponge. Therefore, the histologic appearance of the central zone was selected for presentation."}, "[5]": {"tested_on": "bone fracture", "experiment": "Repair of bone fractures (fractured ulna, loss of minerals on decalcification, histology)", "format": "in vivo, guinea pigs", "settings": "for after decalcification / before decalcification: ten days after surgery", "experimental": "The ulnae of 18 guinea pigs were exposed surgically and then fractured at the midshaft, using a very fine dental burr as a saw. The intact radius served as an immobilization splint. The animals were divided into six groups, three in each, according to the treatment at the fracture site, which was as follows: • Group 1. Untreated controls • Group 2. Sucrose octasulfate 1.0 mg/ml instilled at the fracture site with a syringe • Group 3. Sucrose octasulfate 4.0 mg/ml • Group 4. Collagen (a native 0.25% neutral salt solution) • Group 5. Collagen plus sucrose octasulfate 1.0 mg/ml • Group 6. Collagen plus sucrose octasulfate 4.0 mg/ml\nThe animals were sacrified ten days after surgery, and the fractured bones were dissected and processed for both histologic and biochemical analyses."}, "[6]": {"settings": "sucrose octasulfate 1 mg/ml at fracture site"}, "[7]": {"settings": "sucrose octasulfate 4 mg/ml at fracture site"}},
  "note": "Several values for one entry are separate records, joined by “and”; a condition that tells them apart may be missing. Identical values can stand only once.",
  "data": [
    {"smiles": "O=S(=O)([O-])OC[C@H]1O[C@@](COS(=O)(=O)[O-])(O[C@H]2O[C@H](COS(=O)(=O)[O-])[C@@H](OS(=O)(=O)[O-])[C@H](OS(=O)(=O)[O-])[C@H]2OS(=O)(=O)[O-])[C@@H](OS(=O)(=O)[O-])[C@@H]1OS(=O)(=O)[O-].[K+].[K+].[K+].[K+].[K+].[K+].[K+].[K+]", "note": "[Sucrose Octasulfate, potassium sucrose octasulfate]", "values": [
      {"measurement": "extent of angiogenesis", "setting": "[1]; 0.1 µg/ml", "value": "negative"},
      {"measurement": "No. Positive Responses", "setting": "[1]; 0.1 µg/ml in Hydron, 5 corneas implanted", "value": 0},
      {"measurement": "No. Positive Responses", "setting": "[1]; 1 µg/ml in Hydron, 6 corneas implanted", "value": 1},
      {"measurement": "No. Positive Responses", "setting": "[1]; 10 µg/ml in Hydron, 5 corneas implanted", "value": 4},
      {"measurement": "No. Positive Responses", "setting": "[1]; 100 µg/ml in Hydron, 9 corneas implanted", "value": 8},
      {"measurement": "Angiogenesis", "setting": "[1]; grade on scale 0-4+ in rabbit cornea, potassium salts", "value": 4},
      {"measurement": "angiogenic response", "setting": "[1]; implantation of 10 and 100 µg/ml", "value": "most potent angiogenic response"},
      {"measurement": "extent of angiogenesis", "setting": "[1]; lower concentration, 1.0 g/ml as printed", "value": "decreased"},
      {"measurement": "moles of sucrose octasulfate per mole of collagen initiating the reaction", "setting": "[2]", "value": "five"},
      {"measurement": "critical concentration (lower concentration required for initiation of fibrillogenesis of collagen)", "setting": "[2]; collagen 0.5 mg/ml, pH 7.4", "value": 0.01, "unit": "mg/ml"},
      {"measurement": "fibrillogenesis at pH 3.0 compared with pH 7.4", "setting": "[2]; pH 3.0", "value": "Identical results"},
      {"measurement": "time to dissociation of the transient complex", "setting": "[2]; sucrose octasulfate 0.01 mg/ml, collagen 0.5 mg/ml", "value": "≤ 100", "unit": "ms"},
      {"measurement": "time of formation of collagen fibrils", "setting": "[2]; sucrose octasulfate 0.2 mg/ml, collagen 0.5 mg/ml, pH 7.4", "value": "60 to 70 ms and 60 to 75 ms"},
      {"measurement": "Chemokinesis", "setting": "[3]; score, Boyden chamber, scale not defined, potassium salts", "value": 4},
      {"measurement": "Migrated fibroblasts, fold increase over negative control", "setting": "[3]; sucrose octasulfate 10⁻² g/ml, 2.5 hours at 37 °C", "value": "0.4 fold increase over negative control"},
      {"measurement": "Migrated fibroblasts, fold increase over negative control", "setting": "[3]; sucrose octasulfate 10⁻³ g/ml", "value": "0.4 fold increase over negative control"},
      {"measurement": "Migrated fibroblasts, fold increase over negative control", "setting": "[3]; sucrose octasulfate 10⁻⁴ g/ml", "value": "0.6 fold increase over negative control"},
      {"measurement": "Migrated fibroblasts, fold increase over negative control", "setting": "[3]; sucrose octasulfate 10⁻⁵ g/ml", "value": "2.2 fold increase over negative control"},
      {"measurement": "Migrated fibroblasts, fold increase over negative control", "setting": "[3]; sucrose octasulfate 10⁻⁶ g/ml", "value": "2.1 fold increase over negative control"},
      {"measurement": "Migrated fibroblasts, fold increase over negative control", "setting": "[3]; sucrose octasulfate 10⁻⁷ g/ml", "value": "1.1 fold increase over negative control"},
      {"measurement": "Sponge", "setting": "[4]", "value": 4},
      {"measurement": "after decalcification", "setting": "[5]; [6]", "value": 2.20},
      {"measurement": "before decalcification", "setting": "[5]; [6]", "value": 7.00},
      {"measurement": "decrease", "setting": "[5]; sucrose octasulfate 1 mg/ml, loss of minerals following decalcification", "value": 4.80, "unit": "mg"},
      {"measurement": "decrease", "setting": "[5]; sucrose octasulfate 1 mg/ml, percent loss of minerals following decalcification", "value": 68.6, "unit": "%"},
      {"measurement": "after decalcification", "setting": "[5]; [7]", "value": 2.60},
      {"measurement": "before decalcification", "setting": "[5]; [7]", "value": 5.90},
      {"measurement": "decrease", "setting": "[5]; sucrose octasulfate 4 mg/ml, loss of minerals following decalcification", "value": 3.30, "unit": "mg"},
      {"measurement": "decrease", "setting": "[5]; sucrose octasulfate 4 mg/ml, percent loss of minerals following decalcification", "value": 55.9, "unit": "%"}
    ]}
  ]
}
